# In patent US20240246908A1 (ORION CORPORATION, priority 2021, published 2024):
# System: YAP-TEAD
# Assay: TEAD inhibition, Hippo Pathway TEAD Reporter MCF-7 luciferase assay
# Assay type: cell-based
# Settings: Homo sapiens, MCF7, 24 h, Hippo Pathway TEAD Reporter MCF-7 cells, luciferase activity after 24 h; read-out: IC50 of the test compounds on YAP-TEAD inhibition (Group)
# How it was run: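 MCF-7 cells carrying a TEAD-responsive firefly luciferase reporter, with nuclear YAP1 driving constitutive expression, were treated the day after plating with compounds (11 concentrations, 4 replicates; 0.1% DMSO control). After 24 h, luciferase was read by ONE-Glo luminescence and IC50 determined.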
row,SMILES,IC50 [µM]
1,"COc1ccc(NC(=O)C2CCC(=O)N2C)cc1Oc1ccc(C(F)(F)F)cc1 (stereo not shown) [Compound 259, N-(4-Methoxy-3-(4-(trifluoromethyl)phenoxy)phenyl)-1-methyl-5-oxo-pyrrolidine-2-carboxamide]",0.05 to 0.3
2,"COc1ccc(Oc2ccc(F)cc2)cc1NC(=O)C1CCC(=O)N1C (stereo not shown) [Compound 260, N-(5-(4-Fluorophenoxy)-2-methoxyphenyl)-1-methyl-5-oxopyrrolidine-2-carboxamide]",0.05 to 0.3
3,"COc1cc(NC(=O)C2CCC(=O)N2)cc(Oc2cccc(C(F)(F)F)c2)c1 (stereo not shown) [Compound 261, N-(3-Methoxy-5-(3-(trifluoromethyl)phenoxy)phenyl)-5-oxopyrrolidine-2-carboxamide]",0.05 to 0.3
4,"COc1ccc(Oc2cnc(F)c(C)c2)cc1NC(=O)C1CCC(=O)N1 (stereo not shown) [Compound 262, N-(5-((6-Fluoro-5-methylpyridin-3-yl)oxy)-2-methoxyphenyl)-5-oxopyrrolidine-2-carboxamide]",0.301 to 2
5,"COc1ccc(Oc2cnc(F)c(C)c2)cc1NC(=O)[C@H]1CCC(=O)N1C [Compound 263, (R)—N-(5-((6-fluoro-5-methylpyridin-3-yl)oxy)-2-methoxyphenyl)-1-methyl-5-oxopyrrolidine-2-carboxamide]",0.05 to 0.3
6,COc1cc(NC(=O)C2CCC(=O)N2C)cc(OC2CCC(C(F)(F)F)CC2)c1 (stereo not shown) [Compound 264],< 0.05
7,"COc1ccc(OC2CCC(C(F)(F)F)CC2)cc1NC(=O)[C@H]1CCC(=O)N1C (stereo partly drawn) [Compound 265, (R)—N-(2-Methoxy-5-((4-(trifluoromethyl)cyclohexyl)oxy)phenyl)-1-methyl-5-oxopyrrolidine-2-carboxamide]",< 0.05
8,"COc1ccc(O[C@@H]2CCC[C@H](C(F)(F)F)C2)cc1NC(=O)C1CCC(=O)N1 (stereo partly drawn) [Compound 266, N-(2-Methoxy-5-(((1R,3S)-3-(trifluoromethyl)cyclohexyl)oxy)phenyl)-5-oxo-pyrrolidine-2-carboxamide]",0.05 to 0.3
9,"COc1ccc(O[C@H]2CCC[C@H](C(F)(F)F)C2)cc1NC(=O)C1CCC(=O)N1 (stereo partly drawn) [Compound 267, N-(2-Methoxy-5-(((1S,3S)-3-(trifluoromethyl)cyclohexyl)oxy)phenyl)-5-oxo-pyrrolidine-2-carboxamide]",0.05 to 0.3
10,"COc1ccc(O[C@@H]2CCC[C@H](C(F)(F)F)C2)cc1NC(=O)[C@H]1CCC(=O)N1C [Compound 268, (R)—N-(2-Methoxy-5-(((1R,3S)-3-(trifluoromethyl)cyclohexyl)oxy)phenyl)-1-methyl-5-oxopyrrolidine-2-carboxamide]",0.05 to 0.3
11,"COc1ccc(O[C@H]2CCC[C@H](C(F)(F)F)C2)cc1NC(=O)[C@H]1CCC(=O)N1C [Compound 269, (R)—N-(2-Methoxy-5-(((1S,3S)-3-(trifluoromethyl)cyclohexyl)oxy)phenyl)-1-methyl-5-oxopyrrolidine-2-carboxamide]",0.05 to 0.3
12,"CN1C(=O)CCC1C(=O)Nc1cc(OC2CCC(C(F)(F)F)CC2)ccc1F (stereo not shown) [Compound 270, N-(2-Fluoro-5-((4-(trifluoromethyl)cyclohexyl)oxy)phenyl)-1-methyl-5-oxo-pyrrolidine-2-carboxamide]",0.05 to 0.3
13,"COc1ccc(NC(=O)C2CCC(=O)N2C)cc1O[C@H]1CC[C@H](C(F)(F)F)CC1 (stereo partly drawn) [Compound 271, (R)—N-(4-methoxy-3-(((1r,4R)-4-(trifluoromethyl)cyclohexyl)oxy)phenyl)-1-methyl-5-oxopyrrolidine-2-carboxamide]",0.05 to 0.3
14,"COc1ccc(NC(=O)[C@@H]2CCC(=O)N2C)cc1O[C@H]1CC[C@@H](C(F)(F)F)CC1 [Compound 272, (R)—N-(4-Methoxy-3-(((1s,4S)-4-(trifluoromethyl)cyclohexyl)oxy)phenyl)-1-methyl-5-oxopyrrolidine-2-carboxamide]",0.301 to 2
15,"COc1cc(NC(=O)C2CCC(=O)N2C)cc(Oc2cccc(C(F)(F)F)c2)c1 (stereo not shown) [Compound 273, N-(3-Methoxy-5-(3-(trifluoromethyl)phenoxy)phenyl)-1-methyl-5-oxo-pyrrolidine-2-carboxamide]",0.05 to 0.3
16,"COc1cc(NC(=O)C2CCC(=O)N2C)cc(Oc2ccc(Cl)c(C(F)(F)F)c2)c1 (stereo not shown) [Compound 274, N-(3-(4-Chloro-3-(trifluoromethyl)phenoxy)-5-methoxyphenyl)-1-methyl-5-oxopyrrolidine-2-carboxamide]",0.05 to 0.3
17,"COc1ccc(Oc2ccc(C(F)(F)F)cn2)cc1NC(=O)C1CCC(=O)N1C (stereo not shown) [Compound 276, N-(2-methoxy-5-((5-(trifluoromethyl)pyridin-2-yl)oxy)phenyl)-1-methyl-5-oxopyrrolidine-2-carboxamide]",< 0.05
18,"COc1cc(NC(=O)C2CCC(=O)N2C)cc(Oc2ccc(C(F)(F)F)cn2)c1 (stereo not shown) [Compound 277, N-(3-Methoxy-5-((5-(trifluoromethyl)pyridin-2-yl)oxy)phenyl)-1-methyl-5-oxopyrrolidine-2-carboxamide]",0.05 to 0.3
19,"COc1cc(NC(=O)[C@H]2CCC(=O)N2C)cc(Oc2ccc(C(F)(F)F)cc2)c1 [Compound 278, (R)—N-(3-Methoxy-5-(4-(trifluoromethyl)phenoxy)phenyl)-1-methyl-5-oxo-pyrrolidine-2-carboxamide]",< 0.05
20,"COc1cc(NC(=O)C2CCC(=O)N2C)cc(Oc2ccc(C(F)(F)F)cc2)c1 (stereo not shown) [Compound 279, N-(3-Methoxy-5-(4-(trifluoromethyl)phenoxy)phenyl)-1-methyl-5-oxo-pyrrolidine-2-carboxamide]",< 0.05
21,"CN1C(=O)CC[C@@H]1C(=O)Nc1cc(Oc2ccc(C(F)(F)F)cn2)cc2cccnc12 [Compound 281, (R)-1-Methyl-5-oxo-N-(6-((5-(trifluoromethyl)pyridin-2-yl)oxy)quinolin-8-yl)pyrrolidine-2-carboxamide]",0.05 to 0.3
22,COc1cc(NC(=O)[C@H]2CCC(=O)N2C)cc(OC2CCC(C(F)(F)F)CC2)c1 (stereo partly shown) [Compound 282],< 0.05
23,"COc1ccc(Oc2ccc(C(F)(F)F)cn2)cc1NC(=O)[C@H]1CCC(=O)N1C [Compound 283, (R)—N-(2-Methoxy-5-((5-(trifluoromethyl)pyridin-2-yl)oxy)phenyl)-1-methyl-5-oxopyrrolidine-2-carboxamide]",< 0.05
24,"COc1cc(NC(=O)C2CCC(=O)N2C)cc(Oc2ccc(F)c(F)c2)c1 (stereo not shown) [Compound 284, N-(3-(3,4-Difluorophenoxy)-5-methoxyphenyl)-1-methyl-5-oxopyrrolidine-2-carboxamide]",0.05 to 0.3
25,"COc1cc(NC(=O)[C@H]2CCC(=O)N2C)cc(Oc2ccc(F)c(F)c2)c1 [Compound 285, (R)—N-(3-(3,4-Difluorophenoxy)-5-methoxyphenyl)-1-methyl-5-oxopyrrolidine-2-carboxamide]",0.05 to 0.3
26,"COc1ccc(OC2CCCCC2)cc1NC(=O)C1CCC(=O)N1C (stereo not shown) [Compound 286, N-(5-(Cyclohexyloxy)-2-methoxyphenyl)-1-methyl-5-oxopyrrolidine-2-carboxamide]",0.05 to 0.3
27,"COc1ccc(OC2C=CCCC2)cc1NC(=O)C1CCC(=O)N1C (stereo not shown) [Compound 287, N-(5-(Cyclohex-2-en-1-yloxy)-2-methoxyphenyl)-1-methyl-5-oxopyrrolidine-2-carboxamide]",0.301 to 2
28,"COc1ccc(Oc2ccc(Cl)cn2)cc1NC(=O)[C@@H]1CCC(=O)N1C [Compound 288, (S)—N-(5-((5-Chloropyridin-2-yl)oxy)-2-methoxyphenyl)-1-methyl-5-oxo-pyrrolidine-2-carboxamide]",0.05 to 0.3
